How the values were obtained:
[1] = target: T1, carboxyltransferase component of E. coli acetyl-CoA carboxylase (Escherichia coli, UniProt P0A9Q5+P0ABD5); experiment: Carboxyltransferase inhibition, assayed in the reverse direction with coupled spectrophotometric detection; type: biochemical
T1 construct: made in house; host or cells: E. coli overexpression strain (Blanchard et al. 1998; G. Waldrop, LSU)
T1 sequence (P0ABD5 1-319): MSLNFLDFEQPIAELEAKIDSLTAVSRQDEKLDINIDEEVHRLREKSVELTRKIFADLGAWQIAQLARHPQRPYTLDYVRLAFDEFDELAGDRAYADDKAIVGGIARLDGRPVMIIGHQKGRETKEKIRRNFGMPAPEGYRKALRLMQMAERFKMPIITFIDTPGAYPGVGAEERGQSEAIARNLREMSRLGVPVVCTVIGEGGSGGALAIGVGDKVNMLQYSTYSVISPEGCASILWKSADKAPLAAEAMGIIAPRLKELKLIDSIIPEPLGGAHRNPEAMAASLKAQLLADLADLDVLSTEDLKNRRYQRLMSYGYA
T1 sequence (P0A9Q5 1-304): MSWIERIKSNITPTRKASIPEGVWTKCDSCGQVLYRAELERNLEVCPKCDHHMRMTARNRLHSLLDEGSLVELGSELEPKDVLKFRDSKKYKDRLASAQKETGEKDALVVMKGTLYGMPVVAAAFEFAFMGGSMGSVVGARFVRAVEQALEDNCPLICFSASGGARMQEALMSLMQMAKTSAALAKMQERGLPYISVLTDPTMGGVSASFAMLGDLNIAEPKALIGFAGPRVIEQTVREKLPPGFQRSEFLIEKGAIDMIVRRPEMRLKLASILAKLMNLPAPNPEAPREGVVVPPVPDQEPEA
Protocol: Carboxyltransferase was purified from a strain of E. coli that overexpresses the genes encoding the α and β subunits of the enzyme. C. Blanchard et al., J. Biol. Chem. 273, 19140-19145 (1998). (E. coli strain available on request from G. Waldrop, Department of Biological Sciences, Louisiana State University, Baton Rouge, La.) The published procedure was modified slightly. Bacteria were grown to saturation at 37° C. in 1 L of LB medium in 2 L flasks, and were then induced with 1 g of lactose and incubated without shaking at 25° C. for 24 h. The concentration of carboxyltransferase was determined by the method of M. Bradford, Anal. Biochem. 72, 248-254 (1976) using bovine serum albumin as a standard.
(§1) Carboxyltransferase was assayed in the reverse direction: the production of acetyl-CoA was detected by using the coupling enzymes malate dehydrogenase and citrate synthase, and the reduction of NAD^+ was measured spectrophotometrically by the method of C. Blanchard et al., J. Biol. Chem. 273, 19140-19145 (1998); and R. Guchhait et al., Methods Enzymol. 35, 32-37 (1975).
In Equations [1] and [2], v is the initial velocity, Vm is the maximal velocity, A is the substrate concentration, I is the concentration of inhibitor, Km is the Michaelis constant, Kis is the slope inhibition constant, and Kii is the intercept inhibition constant.
v=VmA/(Km(1+I/Kis)+A(1+I/Kii))
The activity of carboxyltransferase was measured in the reverse direction using malonyl-CoA and biocytin as substrates.

[2] = target: T2, murine acetyl-CoA carboxylase (Mus musculus, UniProt Q5SWU9); experiment: Acetyl-CoA carboxylase activity in cell-free extracts of pre-adipocytes, compound added to extract; type: biochemical
T2 construct: endogenous in cells; host or cells: murine 3T3-L1 pre-adipocytes (cytosolic extract)
Protocol: (§2) The above procedure was modified to prepare extracts for enzymatic analysis. The non-denaturing buffer in that case contained 150 mM KCl instead of NaCl, and there was no Triton X-100, Nonidet P-40, nor any protease or phosphatase inhibitors in the buffer. The cell monolayers were scraped into this buffer, and were homogenized with 16 strokes in a Dounce homogenizer. The homogenates were centrifuged at 10,000 g for 5 minutes, and the supernatants were saved as cytosolic extract, quantitated, and used to assay acetyl-CoA carboxylase activity.
The activity of acetyl-CoA carboxylase from 3T3-L1 cell lysates was determined in a fixed-time assay using HPLC. HPLC is not normally used in this field, because cell lysates are mixtures of such a large number of different components; it would be more conventional to use an assay employing radioactivity. […] This assay will be useful in monitoring the progress and reaction of patients who are administered treatment in accordance with this invention.
(§3) Assays were performed by measuring the loss of acetyl-CoA, or the production of malonyl-CoA, at 5 minute intervals for 20 minutes, using reverse-phase HPLC. […] Rates were calculated by linear regression analysis of malonyl-CoA concentration as a function of time. […] Following termination of the reaction, the samples were centrifuged (3 min, 10,000 g) and then analyzed by HPLC. […]

malate dehydrogenase = experiment: Coupling enzyme control (NAD+ reduction after addition of acetyl-CoA); type: biochemical; details: 0.6 mM compound
Protocol: as §1
(§4) The bisubstrate analog had previously been observed not to inhibit the activity of either of these coupling enzymes at 0.6 mM, a value three times higher than the highest concentration used in the inhibition studies.

citrate synthase = experiment: as above; type: biochemical; details: 0.6 mM compound
Protocol: as §1, §4

acetyl-CoA carboxylase = target: T3, acetyl-CoA carboxylase (Mus musculus, UniProt Q5SWU9); experiment: Acetyl-CoA carboxylase activity in lysates of treated pre-adipocytes (HPLC fixed-time assay); type: cell-based, murine; details: pre-adipocytes treated with 10 μM for four hours; DMSO control 1.40 nmol/min-mg
T3 construct: endogenous in cells; host or cells: murine 3T3-L1 pre-adipocytes (cytosolic extract)
Protocol: as §2
The activity of acetyl-CoA carboxylase from 3T3-L1 cell lysates was determined in a fixed-time assay using HPLC. HPLC is not normally used in this field, because cell lysates are mixtures of such a large number of different components; it would be more conventional to use an assay employing radioactivity. […]
as §3
We also examined whether there was a concomitant decrease in the activity of acetyl-CoA carboxylase. […] Acetyl-CoA carboxylase activity was measured by analytical reverse phase HPLC. […]

[3] = system: breast cancer cell line MCF7; experiment: MCF7 cellular proliferation (counting viable cells as a function of time); type: cell-based; details: preliminary data; number of viable cells as a function of time
Source text: Cancer cells also typically have high levels of fatty acid synthesis. Various inhibitors of fatty acid synthesis are currently in clinical trials for the treatment of breast cancers. Since acetyl-CoA carboxylase—not fatty acid synthase—is the rate-limiting enzyme in fat synthesis, the inhibition of acetyl-CoA carboxylase with the bisubstrate analog should be at least as effective in treating cancers as fatty acid synthesis inhibitors, if not more so.

3T3-L1 pre-adipocytes = experiment: 3T3-L1 adipocyte differentiation (Western blot of transcription factors, Oil Red O staining); type: cell-based, murine
Protocol: Murine 3T3-L1 pre-adipocytes (a kind gift from Howard Green, Harvard University, Cambridge, Mass.) were plated and grown to 2 days post-confluence in DMEM supplemented with 10% bovine serum. Medium was changed every 48 hours. Cells were induced to differentiate into adipocytes by changing the medium to DMEM supplemented with 10% fetal bovine serum (FBS), 0.5 mM 3-isobutyl-1-methylxanthine (MIX) (Sigma), 1 μM dexamethasone (DEX) (Sigma), and 1.7 μM insulin (Sigma). After 48 hours this medium was replaced with DMEM supplemented with 10% FBS, and the cells were maintained in this medium until they were used in experiments. Compound 2 was dissolved in DMSO and added to the cell culture media at a 1:1000 dilution for experiments. Vehicle additions were also conducted for each experiment as controls.
Monolayers of 3T3-L1 adipocytes were rinsed with phosphate-buffered saline (PBS) and then harvested in a non-denaturing buffer containing 150 mM NaCl, 10 mM Tris, pH 7.4, 1 mM EGTA, 1 mM EDTA, 1% Triton-X 100, 0.5% Nonidet P-40 detergent (Sigma), 1 μM PMSF (phenylmethylsulfonyl fluoride protease inhibitor, Sigma), 1 μM pepstatin (Sigma), 50 trypsin inhibitory milliunits of aprotinin (Sigma), 10 μM leupeptin (Sigma), and 2 mM sodium vanadate (Fisher Chemical, Fair Lawn, […]) for Western blot analysis. Samples were extracted for 30 minutes on ice and centrifuged at 10,000 g at 4° C. for 15 minutes. Supernatants containing whole cell extracts were analyzed for protein content using a BCA kit (Pierce) according to the manufacturer's instructions.
Proteins were separated in 5%, 7.5%, or 12% polyacrylamide (National Diagnostics, […].) gel containing sodium dodecyl sulfate (SDS) following the procedure of U. Laemmli, Nature 227, 680-685 (1970). Proteins were then transferred to nitrocellulose (BioRad, Atlanta, Ga.) in 25 mM Tris, 192 mM glycine, and 20% methanol. Following transfer, the membrane was blocked in 4% milk (non-fat, dried milk reconstituted in water at a 4% concentration (w/v)) for 1 hour at room temperature. Results were visualized with horseradish peroxidase (HRP)-conjugated secondary antibodies (Sigma) and enhanced chemiluminescence (Pierce).
The murine 3T3-L1 pre-adipocyte cell line was used to examine the effects of Compound 2 on adipocyte differentiation. The 3T3-L1 cell line can be induced to differentiate in culture from fibroblasts, or pre-adipocytes, into cells with the morphological and biochemical properties of adipocytes. […] For example, these cells accumulate lipids, respond to insulin, and secrete leptin. The 3T3-L1 pre-adipocytes were first grown to a confluent monolayer. At two days post-confluence, the cells were exposed to a “differentiation cocktail” (FBS, MIX, DEX, and insulin) for 48 hours, and the cells were then maintained in 10% FBS in DMEM in the presence or absence of various doses of Compound 2. A vehicle addition of DMSO was also performed as a control. Compound 2 or DMSO was added in a 1-to-1000 dilution to the cell culture medium every 24 hours. One week after treatment with the differentiation cocktail, whole cell extracts were prepared, and cells were stained with Oil Red O to assess lipid accumulation.
The differentiation of pre-adipocytes into adipocytes has been attributed, in part, to increased expression of several transcription factors, including PPARγ and STATs 1, 5A, and 5B. To observe the differentiation of pre-adipocytes into adipocytes, the expression of these transcription factors was examined by Western blot analysis (data not shown). Adipogenesis was also assessed by examining lipid accumulation, as judged by Oil Red O staining (data not shown).
Whole cell extracts were prepared one week after the induction of differentiation in the presence of 0, 1, 2, 4, 8, or 17 μM doses of Compound 2, or treatment with DMSO (vehicle), with treatments in each case repeated every 24 hours. […]

| Compound | Ki [1] | binding energy of the inhibitor relative to the sum of binding energies of the two substrates (times less) [1] | factor by which the product of the substrate dissociation constants exceeds the inhibition constant ([1]; Km of malonyl-CoA and biocytin used as dissociation constants) | inhibition pattern with malonyl-CoA as the variable substrate ([1]; biocytin held constant at 6.0 mM) | inhibition pattern with biocytin as the variable substrate ([1]; malonyl-CoA held constant at 0.1 mM) | effect on acetyl-CoA carboxylase activity in cell-free extracts [2] | inhibition of coupling enzyme malate dehydrogenase (malate dehydrogenase) | inhibition of coupling enzyme citrate synthase (citrate synthase) | Km ([1]; substrate of carboxyltransferase, reverse direction) | activity of acetyl-CoA carboxylase from treated cells (acetyl-CoA carboxylase) | cellular proliferation of MCF7 [3] | adipocyte differentiation of 3T3-L1 cells (3T3-L1 pre-adipocytes; 0, 1, 2, 4, 8 or 17 μM, repeated every 24 hours, one week) | induction of PPARγ expression (Western blotting) (3T3-L1 pre-adipocytes; 17 μM or 8 μM) | lipid accumulation (Oil Red O staining) (3T3-L1 pre-adipocytes; 17 μM or 8 μM) | levels of STAT3 (3T3-L1 pre-adipocytes; Western blot) | expression of STATs 1 and 5A (3T3-L1 pre-adipocytes; Western blot, during induced differentiation) | reversibility of inhibition of differentiation (3T3-L1 pre-adipocytes; compound not re-added at 24 hour intervals after initial treatment) |
| --- | --- | --- | --- | --- | --- | --- | --- | --- | --- | --- | --- | --- | --- | --- | --- | --- | --- |
| CC(C)(COP(=O)(O)OP(=O)(O)OCC1OC(n2cnc3c(N)ncnc32)C(O)C1OP(=O)(O)O)C(O)C(=O)NCCC(=O)NCCSCC(=O)N1C(=O)NC2C(CCCCC(=O)OCc3ccccc3)SCC21 (stereo not drawn) [Compound 1] | 23 ± 2 µM | about 1.3 | about 35 | competitive inhibition | noncompetitive inhibition | inhibited murine acetyl-CoA carboxylase activity | No decrease in activity | No decrease in activity |  |  |  |  |  |  |  |  |  |
| N[C@@H](CCCCNC(=O)CCCC[C@@H]1SC[C@@H]2NC(=O)N[C@@H]21)C(=O)O [biocytin] |  |  |  |  |  |  |  |  | 8 mM |  |  |  |  |  |  |  |  |
| phenylmethyl 5-(6,8-diaza-6-(2-X-acetyl)-7-oxo-3-thiabicyclo[3.3.0]oct-2-yl)pentanoate [Compound 2] |  |  |  |  |  | had no effect |  |  |  | 0.30 nmol malonyl-CoA/min-mg | inhibited cellular proliferation in that cell line in a dose-dependent manner | inhibited adipocyte differentiation of 3T3-L1 cells in a dose-dependent manner | blocked the induction of PPARγ expression | blocked lipid accumulation | unaffected | inhibited in a dose-dependent manner | reversible |

From patent publication US6485941B1, “Inhibition of the carboxyltransferase component of acetyl-CoA carboxylase, and the use of such inhibition in anti-cancer and anti-lipogenic therapies” (Board of Supervisors of Louisiana State University and …, priority 2002, dated 2002)
